# Test results published in paper PMC8752827, “Towards a generic prototyping approach for therapeutically-relevant peptides and proteins in a cell-free translation system” (Nature Communications, 2022).
# “Also recorded” adds a separate entry of the source. Where a SMILES comes first, the peptide text is derived from it. Bridges are numbered along the chain shown (N, C = ends). Where no end group is shown, it is not given here.
# Assays:
# [1] = system: Drosophila melanogaster fruit flies; assay: Insecticidal activity assay (microinjection, LD50); format: in vivo; details: microinjection of 50 nL into female Drosophila melanogaster, lethal effects at 24 h; thrombin-cleaved cell-free Dc1a
# Experimental: The insecticidal activity of the Dc1a and its cell-free produced analog was tested by microinjection in female Drosophila melanogaster fruit flies aged 3–4 days with an average weight of 0.8–0.9 mg according to the previously described method. Briefly, the C-terminally unprocessed Dc1a (Dc1a-GTGSGG-[…]) was dissolved in water for injection, and water was used as the respective negative control. The thrombin-cleaved Dc1a sample (Dc1a-GTGSGG-R) contained thrombin and the respective amount of thrombin was added to the control sample. The injection volume was 50 nL and three repeats of seven doses (each in n = 8 fruit flies) were used for each Dc1a analog. Female Drosophila were cooled on ice before injection. […] The number of control flies affected at the respective post-injection time was subtracted from the number of affected flies.
# Trypsin = biological target: T1, Trypsin (Bos taurus, UniProt P00760); assay: Trypsin-inhibitory assay; format: biochemical; details: for HillSlope / LogEC50: trypsin inhibition curve, nonlinear fit, variable slope, best-fit value
# T1 construct: gene PRSS1
# T1 sequence (P00760 24-246): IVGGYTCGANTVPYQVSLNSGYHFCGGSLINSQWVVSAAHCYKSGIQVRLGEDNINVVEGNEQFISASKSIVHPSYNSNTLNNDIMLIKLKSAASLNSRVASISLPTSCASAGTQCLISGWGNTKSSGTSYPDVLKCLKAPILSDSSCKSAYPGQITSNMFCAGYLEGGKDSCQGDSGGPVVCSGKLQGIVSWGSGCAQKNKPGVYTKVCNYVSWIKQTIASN
# Experimental: Trypsin was freshly prepared at 400 pM in the assay buffer containing 0.1 M NaCl, 10 mM CaCl2, 0.005% Triton X-100, 0.1 M Tris-HCl pH 8.0. […] After incubation residual trypsin activity was measured by adding the quenched fluorescent peptide substrate Boc-Q-A-R- 7-amido-4-methyl-coumarin to a final concentration of 10 μM. The fluorescence increase upon the release of 7-amido-4-methyl-coumarin was monitored on Infinite M1000 Pro plate reader (Tecan) every 30 s using excitation and emission wavelengths of 360 and 460 nm, respectively.
# [2] = system: peptidyl-prolyl isomerase; details: 10 μM inhibitor in Ec CFS translation reaction; Supplementary Fig. 19
# Experimental: For details, refer to a procedure overview in the Supplementary Methods. Briefly, E. coli S30 extract was prepared as described by Schwarz et al.[68] with minor modifications. Briefly, cells were cultivated in 5–10 L of filter-sterilized TBGG media (tryptone 12 g/L, yeast extract 24 g/L, glycerol 8 mL/L, glucose 1 g/L, KH2PO4 2.31 g/L, K2HPO4 2.54 g/L) to OD 3.5, pre-chilled with 5 × 200 or 10 × 200 mL of –80 °C pre-frozen packs of LB broth and spun at 2.5 kg for 15 min. The cell pellet from the final wash was resuspended in 200 % (vol/wt) of S30B buffer and disrupted using fluidic disruption (Constant Systems, continuous flow mode) at 20 kpsi at 4 °C. Cell homogenate was cleared by two consecutive 30 min centrifugation steps at 30 kg at 4 °C while collecting the top ¾ of supernatant every time. The final supernatant was adjusted to 0.4 M with 5 M NaCl followed by 45 min incubation at 42 °C in a water bath. […]
# Fluorescence DHFR activity assay was performed by monitoring the change in NADPH fluorescence (Ex 340 nm, […]) upon its conversion to NADP^+ in 200 µL of buffer containing 20 mM Tris-HCl pH 7.5, 100 mM NaCl, 1 mM Mg(OAc)2, 0.012% Tween 20, 2.5 mM DTT in a black 96-well plate (Corning). […] Fluorescence changes were recorded for 4 h. […]
Compound,EC50 (Trypsin),HillSlope (Trypsin),LogEC50 (Trypsin),further results
Dc1a-GTGSGG-R (bicyclic or more) [cell-free produced Dc1a harboring GTGSGGR on its C-terminus after thrombin cleavage],,,,"insecticidal activity, in words [1]: showed the expected biological activity; also recorded: insecticidal activity similar to the synthetic wild-type toxin"
"GGVCPKILKKCRRDSDCPGACICRGNGYCGSGSDGLPRGSIDTWV (disulfide 4-21, 11-23, 17-29) [wtMCoTI-RGS]",0.609 nM,,,"trypsin-inhibitory activity / Ki for trypsin, compared in words (Trypsin; trypsin-inhibitory assay, comparison with the named counterpart): almost fourfold higher Ki for trypsin"
"ILKKCRRDSDCPGACICRGNGYCGSGSDGGVCPKGAGRGSIDTWV (disulfide 5-17, 11-23, 15-32) [prmMcoTI-RGS]",0.167 nM,,,
CC[C@H](C)[C@H](NC(=O)[C@@H]1CCCN1C(=O)[C@@H]1CCCN1C(=O)[C@@H](NC(=O)[C@@H](N)CO)[C@@H](C)CC)C(=O)N[C@H]1CSSC[C@@H](C(=O)N[C@H](C(=O)N[C@@H](CCCCN)C(=O)O)[C@@H](C)O)NC(=O)[C@H](CCC(N)=O)NC(=O)CNC(=O)[C@H](CC(=O)O)NC(=O)[C@@H]2CCCN2C(=O)[C@H](Cc2ccccc2)NC1=O [Cell-free_oMut-SFTI] (H-SIPPICFPDGQCTK-OH; disulfide 6-12; C-terminus assumed),,-1.405,"2.696 log10 [SFTI], pM",
"CO[C@H]1C[C@@H]2CC[C@@H](C)[C@@](O)(O2)C(=O)C(=O)N2CCCC[C@H]2C(=O)O[C@H]([C@H](C)C[C@@H]2CC[C@@H](O)[C@H](OC)C2)CC(=O)[C@H](C)/C=C(\C)[C@@H](O)[C@@H](OC)C(=O)[C@H](C)C[C@H](C)/C=C/C=C/C=C/1C [rapamycin, Rapamycin]",,,,effect on the gain of hDHFR activity by exposure of GFP-hDHFR to lysate (post-translational capture) [2]: eliminated the beneficial effect of protein exposure to lysate in Ec CFS
CC[C@H](C)[C@@H]1NC(=O)[C@@H]2CCCN2C(=O)[C@@H]2CCCN2C(=O)[C@H]([C@@H](C)CC)NC(=O)[C@H](CO)NC(=O)[C@H](CCCCN)NC(=O)[C@H]([C@@H](C)O)NC(=O)[C@@H]2CSSC[C@H](NC1=O)C(=O)N[C@@H](Cc1ccccc1)C(=O)N1CCC[C@H]1C(=O)N[C@@H](CC(=O)O)C(=O)NCC(=O)N[C@@H](CCCNC(=N)N)C(=O)N2 [Chem_cyc-SFTI],,-1.291,"2.234 log10 [SFTI], pM",
